The numbers were not newly measured in EP1921109A2, “Grafted cyclodextrin” (Cellresin Technologies, LLC, priority 2004, dated 2005), which cites them from elsewhere.

For data set [1] the following is noted: aqueous solutions.

Structures are written as SMILES.

As for `CCCCCCCCCC=O` [Decanal], the “Flavor Threshold ppb in Water” value was 1.07 ppb and the “Odor Threshold ppb in Water” value was 0.53 ppb.
With `CCCC(=O)OCC` [Ethyl butyrate], the “Flavor Threshold ppb in Water” value was 0.13 ppb and the “Odor Threshold ppb in Water” value is given as 0.13 ppb.
For the compound `CC(C)=CCC/C(C)=C/C=O` [Geranial], the “Flavor Threshold ppb in Water” value is reported as 40.0 ppb.
With `CCCCCC=O` [Hexanal], the “Flavor Threshold ppb in Water” value is 3.66 ppb and the “Odor Threshold ppb in Water” value is listed as 9.18 ppb.
For `C=C(C)[C@H]1CC=C(C)CC1` [Limonene], the “Flavor Threshold ppb in Water” value is 210 ppb and the “Odor Threshold ppb in Water” value is 60 ppb.
For `C=CC(C)(O)CCC=C(C)C` (centres unmarked) [Linalool], the “Flavor Threshold ppb in Water” value is 3.8 ppb and the “Odor Threshold ppb in Water” value is reported as 5.3 ppb.
In the case of `CC(C)=CCC/C(C)=C\C=O` [Neral], the “Flavor Threshold ppb in Water” value is listed as 41.4 ppb and the “Odor Threshold ppb in Water” value is listed as 85 ppb.
In the case of `CCCCCCCC=O` [Octanal], the “Flavor Threshold ppb in Water” value is 0.52 ppb and the “Odor Threshold ppb in Water” value is 1.41 ppb.
Consider `COc1c(Cl)cc(Cl)cc1Cl` [TCA, 2,4,6-trichloroanisole], for which the “Concentrations of TCA detected in untrained panels” value in data set [1] is listed as 20 - 30 ppt. Further, the “Concentrations of TCA detected by trained panels” value in data set [1] (as low as) is 5 - 10 ppt.
Take `CC1=CCC2CC1C2(C)C` (stereo not drawn) [α-Pinene]: the “Flavor Threshold ppb in Water” value is listed as 1014 ppb and the “Odor Threshold ppb in Water” value is given as 9.5 ppb.
In the case of `CC1=CCC(C(C)(C)O)CC1` (stereo not drawn) [α-Terpineol], the “Flavor Threshold ppb in Water” value is 300 ppb and the “Odor Threshold ppb in Water” value is given as 280 ppb.
With `C=CC(=C)CCC=C(C)C` [β-Myrcene], the “Flavor Threshold ppb in Water” value is recorded as 42 ppb and the “Odor Threshold ppb in Water” value is 36 ppb.
